Results published in US4871744A, “Certain 2,3-dihydro-indole-1-carboxamido-N-[8-azabicyclo(3.2.1)octan-3-yl]d e” (priority 1988, dated 1989).
Where a name gives a salt, the structure may show the parent alone.

The molecules below were run on von Bezold-Jarisch reflex evoked by 5-HT (assay: Antagonism of the von Bezold-Jarisch reflex evoked by 5-HT in the anaesthetised rat). Settings: Rattus norvegicus, iv; urethane-anaesthetised male rats; 5-HT-evoked changes in heart rate; 5-HT usually 6 μg/kg i.v.; read-out: ED50 (concentration required to reduce the 5HT-evoked response to 50% of the control response).
Assay type: in vivo
Experimental: Antagonism of the von Bezold-Jarisch reflex
The compounds were evaluated for antagonism of the von Bezold-Jarisch reflex evoked by 5-HT in the anaesthetised rat according to the following method:
Pharmacol. 2, 229-245 (1980). A submaximal dose of 5-HT (usually 6 μg/kg) was given repeatedly by the intravenous route and changes in heart rate quantified. Compounds were given intravenously and the concentration required to reduce the 5HT-evoked response to 50% of the control response (ED50) was then determined.

Going from `CN1[C@@H]2CCC[C@H]1C[C@@H](NC(=O)N1CCc3ccccc31)C2` [Example 1, endo-N-(9-Methyl-9-azabicyclo[3.3.1]non-3-yl)-2,3-dihydroindole-1-carboxamide] to `CN1[C@@H]2CC[C@H]1C[C@@H](NC(=O)N1CCc3ccccc31)C2` [Example 2, endo-N-(8-Methyl-8-azabicyclo[3.2.1]oct-3-yl)-2,3-dihydroindole-1-carboxamide], the ED50 falls from 12.5 µg/kg to 1.4 µg/kg (8.9-fold).

First: CN1[C@@H]2CC[C@H]1C[C@@H](OC(=O)N1CCc3ccccc31)C2 [Example 3, endo(8-Methyl-8-azabicyclo[3.2.1]oct-3-yl)-2,3-dihydroindole carboxylic acid ester]
Second: CCN1[C@@H]2CC[C@H]1C[C@@H](NC(=O)N1CCc3ccccc31)C2 [Example 7, endo-N-(8-Ethyl-8-azabicyclo[3.2.1]oct-3-yl)-2,3-dihydroindole-1-carboxamide]
The ED50 of the first is lower: 5 µg/kg for the first, over 10 µg/kg for the second.

Going from `CC1CN(C(=O)N[C@H]2C[C@H]3CC[C@@H](C2)N3C)c2ccccc21` (stereo partly drawn) [Example 4, endo-N-(8-Methyl-8-azabicyclo[3.2.1]oct-3-yl)-2,3-dihydro-3-methylindole-1-carboxamide hydrochloride] to `CCC1CN(C(=O)N[C@H]2C[C@H]3CC[C@@H](C2)N3C)c2ccccc21` (stereo partly drawn) [Example 14, endo-N-(8-Methyl-8-azabicyclo[3.2.1]oct-3-yl)-2,3-dihydro-3-ethylindole-1-carboxamide hydrochloride], the ED50 falls from 3 µg/kg to 1 µg/kg (3-fold).

First: CN1[C@@H]2CC[C@H]1C[C@@H](NC(=O)N1CC(C)(C)c3ccccc31)C2 [Example 5, endo-N-(8-Methyl-8-azabicyclo[3.2.1]oct-3-yl)-2,3-dihydro-3,3-dimethylindole-1-carboxamide]
Second: CC1N(C(=O)N[C@H]2C[C@H]3CC[C@@H](C2)N3C)c2ccccc2C1(C)C (stereo partly drawn) [Example 21, (endo)-N-(8-Methyl-8-azabicyclo[3.2.1]oct-3-yl)-2,3-dihydro-2,3,3-trimethylindole-1-carboxamide hydrochloride]
The ED50 of the first is 2.4-fold lower: 0.58 µg/kg for the first, 1.4 µg/kg for the second.

`Cc1cn(C(=O)N[C@H]2C[C@H]3CC[C@@H](C2)N3C)c2ccccc12` [Example 6, endo-N-(8-Methyl-8-azabicyclo[3.2.1]oct-3-yl)-3-methylindole-1-carboxamide hydrochloride] and `CCc1cn(C(=O)N[C@H]2C[C@H]3CC[C@@H](C2)N3C)c2ccccc12` [Example 15, endo-N-(8-Methyl-8-azabicyclo[3.2.1]-oct-3-yl)-3-ethylindole-1-carboxamide hydrochloride] are within 1.5-fold of each other in ED50: 1.6 µg/kg for the first, 2 µg/kg for the second.

`CN1[C@@H]2CC[C@H]1C[C@@H](NC(=O)N1CCc3cc(F)ccc31)C2` [Example 8, endo-N-(8-Methyl-8-azabicyclo[3.2.1]oct-3-yl)-5-fluoro-2,3-dihydroindole-1-carboxamide hydrochloride] and `CN1[C@@H]2CC[C@H]1C[C@@H](NC(=O)N1CCc3cc(Cl)ccc31)C2` [Example 9, endo-N-(8-Methyl-8-azabicyclo[3.2.1]oct-3-yl)-2,3-dihydro-5-chloroindole-1-carboxamide] cannot be ordered by ED50: 17 µg/kg for the first, over 10 µg/kg for the second.

Going from `COc1ccc2c(c1)CCN2C(=O)N[C@H]1C[C@H]2CC[C@@H](C1)N2C` [Example 10, endo-N-(8-Methyl-8-azabicyclo[3.2.1]oct-3-yl)2,3-dihydro-5-methoxyindole-1-carboxamide] to `CN1[C@@H]2CC[C@H]1C[C@@H](NC(=O)N1CCc3cc([N+](=O)[O-])ccc31)C2` [Example 16, endo-N-(8-Methyl-8-azabicyclo[3.2.1]oct-3-yl)-2,3-dihydro-5-nitroindole-1-carboxamide], the ED50 rises from 7 µg/kg to over 10 µg/kg.

Compared with `CN1[C@@H]2CC[C@H]1C[C@@H](NC(=O)n1ccc3ccccc31)C2` [Example 11, endo-N-(8-Methyl-8-azabicyclo[3.2.1]oct-3-yl)indole-1-carboxamide hydrochloride], `CC1Cc2ccccc2N1C(=O)N[C@H]1C[C@H]2CC[C@@H](C1)N2C` (stereo partly drawn) [Example 19, (endo)-N-(8-Methyl-8-azabicyclo[3.2.1]oct-3-yl)-2,3-dihydro-2-methylindole-1-carboxamide hydrochloride] is 9.7-fold lower in ED50: 7.7 µg/kg for the first, 0.79 µg/kg for the second.

`Cl.O=C(NC1CN2CCC1CC2)N1CCc2ccccc21` (stereo not shown) [Example 12, N-(1-Azabicyclo[2.2.2]oct-3-yl)2,3-dihydroindole-1-carboxamide hydrochloride] and `CC1(C)CN(C(=O)NC2CN3CCC2CC3)c2ccccc21` (stereo not shown) [Example 18, N-(1-Azabicyclo[2.2.2]oct-3-yl)2,3-dihydro-3,3-dimethylindole-1-carboxamidehydrochloride] are within 1.5-fold of each other in ED50: 4.4 µg/kg for the first, 5.3 µg/kg for the second.

First: CN1[C@@H]2CC[C@H]1C[C@@H](NC(=O)N1CCc3ccc([N+](=O)[O-])cc31)C2 [Example 17, endo-N-(8-Methyl-8-azabicyclo[3.2.1]oct-3-yl)-2,3-dihydro-6-nitroindole-1-carboxamide hydrochloride]
Second: CC(C)C1CN(C(=O)N[C@H]2C[C@H]3CC[C@@H](C2)N3C)c2ccccc21 (stereo partly drawn) [Example 22, (endo)-N-(8-Methyl-8-azabicyclo[3.2.1]oct-3-yl)-2,3-dihydro-3-isopropylindole-1-carboxamide hydrochloride]
The ED50 of the first is higher: over 10 µg/kg for the first, 0.56 µg/kg for the second.

`CC1c2ccccc2N(C(=O)N[C@H]2C[C@H]3CC[C@@H](C2)N3C)C1C` (stereo partly drawn) [Example 20, (endo)-N-(8-Methyl-8-azabicyclo[3.2.1]oct-3-yl)-2,3-dihydro-2,3-dimethylindole-1-carboxamide] showed an ED50 of 0.53 µg/kg.

Same assay, conditions: i.v.; urethane-anaesthetised male rats; 5-HT-evoked changes in heart rate; 5-HT usually 6 μg/kg i.v.

In the case of `O=C(OC1CN2CCC1CC2)N1CCc2ccccc21` (stereo not shown) [Example 13, N-(1-Azabicyclo[2.2.2]oct-3-yl)-2,3-dihydroindole-1-carboxylic acid ester], the “ED50 (concentration required to reduce the 5HT-evoked response to 50% of the control response)” value is reported as 3.9 µg/kg.
